Patent US9175003B2, “Substituted azoanthracene derivatives and intermediates for preparation thereof” (TransTech Pharma, LLC, priority 2009, dated 2015)

Each compound was assayed against human GLP-1 receptor (Homo sapiens (Human), UniProt P43220). Conditions: read-out: Mean EC50; cAMP, HTRF detection, 30 min at 37° C., HEK-293 cells expressing cloned human GLP-1 receptor.
Sequence of human GLP-1 receptor (P43220 24-463): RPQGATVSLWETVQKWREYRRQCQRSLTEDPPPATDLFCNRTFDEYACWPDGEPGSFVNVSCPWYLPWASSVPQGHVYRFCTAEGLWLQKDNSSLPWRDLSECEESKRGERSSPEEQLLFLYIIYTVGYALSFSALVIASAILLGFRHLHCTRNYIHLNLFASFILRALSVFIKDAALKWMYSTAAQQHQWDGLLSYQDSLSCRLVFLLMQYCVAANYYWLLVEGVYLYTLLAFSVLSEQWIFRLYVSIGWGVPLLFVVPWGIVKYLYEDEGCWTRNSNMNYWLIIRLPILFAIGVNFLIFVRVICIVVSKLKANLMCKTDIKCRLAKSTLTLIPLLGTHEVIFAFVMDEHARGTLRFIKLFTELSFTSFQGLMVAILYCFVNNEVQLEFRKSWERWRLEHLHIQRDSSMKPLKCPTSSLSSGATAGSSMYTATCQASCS

Structure (SMILES)	EC50 [nM]
CC[C@@H](c1ccccc1)N1Cc2cc3c(cc2C[C@H]1C(=O)N[C@@H](Cc1ccc(-c2ccnc(C)c2C)cc1)C(=O)O)OC[C@H](c1ccc(OCc2ccc(Cl)c(Cl)c2)cc1)O3 [Example 179, (S)-2-{[(3S,8S)-3-[4-(3,4-Dichloro-benzyloxy)-phenyl]-7-((S)-1-phenyl-propyl)-2,3,6,7,8,9-hexahydro-[1,4]dioxino[2,3-g]isoquinoline-8-carbonyl]-amino}-3-[4-(2,3-dimethyl-pyridin-4-yl)-phenyl]-propionic acid]	5
CC[C@@H](c1ccccc1)N1Cc2cc3c(cc2C[C@H]1C(=O)N[C@@H](Cc1ccc(-c2cc(C)nn2C)cc1)C(=O)O)OC[C@H](c1ccc(OCc2ccc(Cl)c(Cl)c2)cc1)O3 [Example 180, (S)-2-{[(3S,8S)-3-[4-(3,4-Dichloro-benzyloxy)-phenyl]-7-((S)-1-phenyl-propyl)-2,3,6,7,8,9-hexahydro-[1,4]dioxino[2,3-g]isoquinoline-8-carbonyl]-amino}-3-[4-(2,5-dimethyl-2H-pyrazol-3-yl)-phenyl]-propionic acid]	3
CC[C@@H](c1ccccc1)N1Cc2cc3c(cc2C[C@H]1C(=O)N[C@@H](Cc1ccc(Oc2ccnc(C)c2)cc1)C(=O)O)OC[C@H](c1ccc(OCc2ccc(Cl)c(Cl)c2)cc1)O3 [Example 181, (S)-2-{[(3S,8S)-3-[4-(3,4-Dichloro-benzyloxy)-phenyl]-7-((S)-1-phenyl-propyl)-2,3,6,7,8,9-hexahydro-[1,4]dioxino[2,3-g]isoquinoline-8-carbonyl]-amino}-3-[4-(2-methyl-pyridin-4-yloxy)-phenyl]-propionic acid]	16
CC[C@@H](c1ccccc1)N1Cc2cc3c(cc2C[C@H]1C(=O)N[C@@H](Cc1ccc(-c2ccnc4c2CCC4)cc1)C(=O)O)OC[C@H](c1ccc(OCc2ccc(Cl)c(Cl)c2)cc1)O3 [Example 182, (S)-2-{[(3S,8S)-3-[4-(3,4-Dichloro-benzyloxy)-phenyl]-7-((S)-1-phenyl-propyl)-2,3,6,7,8,9-hexahydro-[1,4]dioxino[2,3-g]isoquinoline-8-carbonyl]-amino}-3-[4-(6,7-dihydro-5H-[1]pyrindin-4-yl)-phenyl]-propionic acid]	29
CC[C@@H](c1ccccc1)N1Cc2cc3c(cc2C[C@H]1C(=O)N[C@@H](Cc1ccc(Oc2ccncc2)cc1)C(=O)O)OC[C@H](c1ccc(OCc2ccc(Cl)c(Cl)c2)cc1)O3 [Example 184]	74
CC[C@@H](c1ccccc1)N1Cc2cc3c(cc2C[C@H]1C(=O)N[C@@H](Cc1ccc(Oc2cccnc2)cc1)C(=O)O)OC[C@H](c1ccc(OCc2ccc(Cl)c(Cl)c2)cc1)O3 [Example 185, (S)-2-{[(3S,8S)-3-[4-(3,4-Dichloro-benzyloxy)-phenyl]-7-((S)-1-phenyl-propyl)-2,3,6,7,8,9-hexahydro-[1,4]dioxino[2,3-g]isoquinoline-8-carbonyl]-amino}-3-[4-(pyridin-3-yloxy)-phenyl]-propionic acid]	119
CC[C@@H](c1ccccc1)N1Cc2cc3c(cc2C[C@H]1C(=O)N[C@@H](Cc1ccc(-c2ccnnc2)cc1)C(=O)O)OC[C@H](c1ccc(OCc2ccc(Cl)c(Cl)c2)cc1)O3 [Example 186, (S)-2-{[(3S,8S)-3-[4-(3,4-Dichloro-benzyloxy)-phenyl]-7-((S)-1-phenyl-propyl)-2,3,6,7,8,9-hexahydro-[1,4]dioxino[2,3-g]isoquinoline-8-carbonyl]-amino}-3-(4-pyridazin-4-yl-phenyl)-propionic acid]	256
CC[C@@H](c1ccccc1)N1Cc2cc3c(cc2C[C@H]1C(=O)N[C@@H](Cc1ccc(-c2cc(C)nc(C)c2)cc1)C(=O)O)OC[C@H](c1ccc(OCc2ccc(Cl)c(Cl)c2)cc1)O3 [Example 188, (S)-2-{[(3S,8S)-3-[4-(3,4-Dichloro-benzyloxy)-phenyl]-7-((S)-1-phenyl-propyl)-2,3,6,7,8,9-hexahydro-[1,4]dioxino[2,3-g]isoquinoline-8-carbonyl]-amino}-3-[4-(2,6-dimethyl-pyridin-4-yl)-phenyl]-propionic acid]	14
